Activity calls are given as the source filed them.
Assays:
P388/ADR = test: cells; format: functional; settings: Mus musculus
P388 = test: cells; format: functional; settings: Mus musculus
SN12K1 = test: cells; format: functional; settings: Homo sapiens
Caspase-3 = target: T1, Caspase-3 (Homo sapiens, UniProt P42574); format: functional;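 further: Dose-response selectivity test against caspase-3 for candidate inhibitors of sentrin-specific proteases (SENPs)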
T1 sequence (P42574 whole entry): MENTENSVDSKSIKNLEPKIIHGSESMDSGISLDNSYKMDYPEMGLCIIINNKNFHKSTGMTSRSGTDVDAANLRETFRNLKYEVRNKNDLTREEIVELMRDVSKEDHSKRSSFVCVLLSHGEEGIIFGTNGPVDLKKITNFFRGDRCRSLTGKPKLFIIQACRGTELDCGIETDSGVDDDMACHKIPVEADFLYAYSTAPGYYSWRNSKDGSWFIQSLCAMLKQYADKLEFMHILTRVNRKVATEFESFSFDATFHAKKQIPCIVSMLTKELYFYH

Protein skinhead-1 = target: T2, Protein skinhead-1 (Caenorhabditis elegans, UniProt P34707); format: functional
T2 sequence (P34707 whole entry): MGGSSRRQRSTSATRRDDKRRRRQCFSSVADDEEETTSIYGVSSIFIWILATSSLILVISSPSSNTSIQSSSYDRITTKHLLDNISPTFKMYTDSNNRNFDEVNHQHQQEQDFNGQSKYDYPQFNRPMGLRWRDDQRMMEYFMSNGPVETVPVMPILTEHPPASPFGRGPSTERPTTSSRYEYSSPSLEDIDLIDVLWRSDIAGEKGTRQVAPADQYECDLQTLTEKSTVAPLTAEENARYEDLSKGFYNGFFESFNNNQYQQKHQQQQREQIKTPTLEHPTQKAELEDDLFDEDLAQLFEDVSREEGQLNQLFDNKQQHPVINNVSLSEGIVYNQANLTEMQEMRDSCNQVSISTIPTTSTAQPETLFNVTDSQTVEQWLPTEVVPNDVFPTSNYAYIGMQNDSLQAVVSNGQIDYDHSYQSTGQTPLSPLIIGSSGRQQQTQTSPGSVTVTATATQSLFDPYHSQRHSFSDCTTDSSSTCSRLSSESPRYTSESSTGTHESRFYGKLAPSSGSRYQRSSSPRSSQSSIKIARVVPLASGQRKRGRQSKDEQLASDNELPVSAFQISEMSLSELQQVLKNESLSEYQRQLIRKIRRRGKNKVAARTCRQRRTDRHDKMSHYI

[1] = target: T3, Sentrin-specific protease 7 (Homo sapiens, UniProt Q9BQF6); format: functional;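 further: Luminescence-based dose-response confirmation of ultra-high-throughput screening hits, measuring inhibition of SENP7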
T3 sequence (Q9BQF6 whole entry): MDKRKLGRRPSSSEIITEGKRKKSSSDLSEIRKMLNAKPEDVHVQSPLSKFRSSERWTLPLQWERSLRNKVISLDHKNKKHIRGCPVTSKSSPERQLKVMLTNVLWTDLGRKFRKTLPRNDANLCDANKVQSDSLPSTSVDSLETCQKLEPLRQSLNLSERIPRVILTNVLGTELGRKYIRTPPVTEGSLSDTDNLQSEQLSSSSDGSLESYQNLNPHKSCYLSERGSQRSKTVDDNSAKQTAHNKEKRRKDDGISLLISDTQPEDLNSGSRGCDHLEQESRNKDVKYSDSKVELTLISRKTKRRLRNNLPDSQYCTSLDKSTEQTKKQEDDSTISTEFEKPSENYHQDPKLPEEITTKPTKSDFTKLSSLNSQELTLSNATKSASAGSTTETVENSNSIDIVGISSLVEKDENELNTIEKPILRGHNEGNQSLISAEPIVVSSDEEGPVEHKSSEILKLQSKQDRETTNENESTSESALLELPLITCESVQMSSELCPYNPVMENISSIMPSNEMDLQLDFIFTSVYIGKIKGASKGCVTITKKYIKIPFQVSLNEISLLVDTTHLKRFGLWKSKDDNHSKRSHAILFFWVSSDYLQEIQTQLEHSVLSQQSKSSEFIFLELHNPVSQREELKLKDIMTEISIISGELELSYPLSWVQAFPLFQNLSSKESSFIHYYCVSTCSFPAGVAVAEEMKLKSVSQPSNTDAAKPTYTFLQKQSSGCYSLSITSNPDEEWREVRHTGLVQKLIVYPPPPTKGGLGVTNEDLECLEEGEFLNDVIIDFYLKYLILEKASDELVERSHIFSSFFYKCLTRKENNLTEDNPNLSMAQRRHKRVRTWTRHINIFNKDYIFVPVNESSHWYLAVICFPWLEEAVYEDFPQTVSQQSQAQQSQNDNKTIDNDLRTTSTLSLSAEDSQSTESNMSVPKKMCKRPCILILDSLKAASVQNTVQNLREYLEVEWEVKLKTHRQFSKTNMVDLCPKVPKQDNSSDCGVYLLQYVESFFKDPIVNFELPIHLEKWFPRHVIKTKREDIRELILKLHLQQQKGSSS

[2] = target: T4, Sentrin-specific protease 8 (Homo sapiens, UniProt Q96LD8); format: functional;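 further: luminescence read-out of SENP8 inhibition, dose-response confirmation following an ultra-high-throughput screen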
T4 sequence (Q96LD8 whole entry): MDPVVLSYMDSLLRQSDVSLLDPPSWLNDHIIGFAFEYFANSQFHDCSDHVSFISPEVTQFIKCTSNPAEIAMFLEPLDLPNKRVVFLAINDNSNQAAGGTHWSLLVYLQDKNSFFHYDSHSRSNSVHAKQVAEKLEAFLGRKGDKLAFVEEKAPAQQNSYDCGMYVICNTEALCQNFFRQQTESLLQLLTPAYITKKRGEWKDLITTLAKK

[3] = target: T5, Sentrin-specific protease 6 (Homo sapiens, UniProt Q9GZR1); format: functional;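 further: Luminescence-based dose-response confirmatory assay of SENP6 inhibition, following up an ultra-high-throughput screen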
T5 sequence (Q9GZR1 whole entry): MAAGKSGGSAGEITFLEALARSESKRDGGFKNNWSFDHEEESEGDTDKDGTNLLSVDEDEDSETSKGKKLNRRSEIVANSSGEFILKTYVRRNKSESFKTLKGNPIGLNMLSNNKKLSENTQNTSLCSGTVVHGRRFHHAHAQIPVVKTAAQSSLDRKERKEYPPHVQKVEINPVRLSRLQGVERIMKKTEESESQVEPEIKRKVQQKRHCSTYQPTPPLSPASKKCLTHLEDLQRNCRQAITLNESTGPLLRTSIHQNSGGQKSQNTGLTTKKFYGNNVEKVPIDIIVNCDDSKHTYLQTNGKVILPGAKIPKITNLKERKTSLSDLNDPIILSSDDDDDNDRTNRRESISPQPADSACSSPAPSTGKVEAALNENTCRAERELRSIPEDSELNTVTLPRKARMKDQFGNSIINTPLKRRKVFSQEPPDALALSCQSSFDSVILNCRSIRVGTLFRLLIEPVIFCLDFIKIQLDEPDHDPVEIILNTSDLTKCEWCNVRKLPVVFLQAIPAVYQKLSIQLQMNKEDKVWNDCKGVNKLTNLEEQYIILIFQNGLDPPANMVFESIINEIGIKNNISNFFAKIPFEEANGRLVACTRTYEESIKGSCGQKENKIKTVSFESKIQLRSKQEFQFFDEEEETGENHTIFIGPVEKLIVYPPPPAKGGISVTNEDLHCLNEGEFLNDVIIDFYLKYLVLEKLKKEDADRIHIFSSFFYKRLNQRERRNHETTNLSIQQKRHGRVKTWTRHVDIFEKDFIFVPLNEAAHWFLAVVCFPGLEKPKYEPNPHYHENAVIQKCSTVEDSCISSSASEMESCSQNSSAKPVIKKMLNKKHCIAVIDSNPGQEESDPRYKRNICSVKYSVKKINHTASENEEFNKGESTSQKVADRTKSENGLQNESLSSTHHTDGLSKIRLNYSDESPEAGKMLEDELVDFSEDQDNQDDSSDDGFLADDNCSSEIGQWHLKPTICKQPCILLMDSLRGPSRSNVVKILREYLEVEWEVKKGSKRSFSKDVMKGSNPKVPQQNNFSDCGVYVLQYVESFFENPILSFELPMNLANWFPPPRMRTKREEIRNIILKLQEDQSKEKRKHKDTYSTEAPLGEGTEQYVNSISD

BJ [4] = test: growth inhibition of engineered Ras-driven BJ cells – cell-based, alamar blue fluorescence, cherrypicked samples, dose response (AID 2631); format: functional; settings: Homo sapiens;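 further: confirmatory dose-response assay in RAS-dependent BJ fibroblasts engineered with TERT, LT and ST, with cytotoxicity read by fluorescence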
BJ [5] = test: cells; format: functional, cell-based; settings: Homo sapiens
[6] = DRD fibroblast viability loss – cell-based, non-viral oncogenic, luminescence, dose response (AID 1934); format: functional; settings: Homo sapiens
INS1 = test: INS-1E survival protection against cytokine death – cell-based, luminescence, retest, dose response (AID 449756); format: functional; settings: Rattus norvegicus;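 further: cell death triggered by IL-1 beta plus TNF-alpha plus IFN-gamma mixture; protective hits raise ATP signal compared with cytokine alone wells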
[7] = non-specific 3'UTR reporter inhibition in Clone20-Shn3RL – cell-based, Renilla luciferase, cherry-picked, counter-screen for Shn3 inhibitor project, dose response (AID 624133); format: functional
[8] = loss of viability in HepG2 cells – cell-based, CellTiter-Glo, cherry-picked, cytotoxicity control for Shn3 inhibitor project, dose response (AID 624134); format: functional
[9] = reduction of Shn3 3'UTR-driven luciferase in osteoblasts – cell-based, Clone20 osteoblasts, firefly luciferase, cherry-picked, dose response (AID 624132); format: functional;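 further: firefly luciferase luminescence from reporter carrying the Shn3 3'UTR in osteoblasts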
BJ [10] = test: BJ-TERT-LT-ST fibroblast viability loss – cell-based, RAS-independent, luminescence, dose response (AID 1935); format: functional; settings: Homo sapiens;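 further: BJ fibroblasts immortalized with TERT plus LT and ST oncogenes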
BJ [11] = test: BJ-TERT fibroblast viability loss – cell-based, RAS-independent, luminescence, dose response (AID 1933); format: functional; settings: Homo sapiens
Streptococcus = test: GAS UMAA2166 growth inhibition – luminescence, BacTiterGlo, counter-screen for streptokinase expression inhibitor project, dose response (AID 1915); format: functional, organism-based;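 further: potency for reduction of bacterial viability or growth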
[12] = system: Streptococcus sp. 'group A'; test: Streptococcus pyogenes SK(-)GAS viability under kanamycin – luminescence, BacTiterGlo, confirmation, counter-screen for streptokinase expression inhibitor project, dose response (AID 1900); format: functional, organism-based
Streptokinase A = target: T6, Streptokinase A (Streptococcus pyogenes serotype M1, UniProt P10520); test: viability-normalized secreted streptokinase activity reduction – plasminogen activation absorbance, OD405, dose response (AID 1914); format: functional, Streptococcus pyogenes M1 GAS;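 further: secreted streptokinase activity via plasminogen activation per viability signal from cell pellet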
T6 sequence (P10520 whole entry): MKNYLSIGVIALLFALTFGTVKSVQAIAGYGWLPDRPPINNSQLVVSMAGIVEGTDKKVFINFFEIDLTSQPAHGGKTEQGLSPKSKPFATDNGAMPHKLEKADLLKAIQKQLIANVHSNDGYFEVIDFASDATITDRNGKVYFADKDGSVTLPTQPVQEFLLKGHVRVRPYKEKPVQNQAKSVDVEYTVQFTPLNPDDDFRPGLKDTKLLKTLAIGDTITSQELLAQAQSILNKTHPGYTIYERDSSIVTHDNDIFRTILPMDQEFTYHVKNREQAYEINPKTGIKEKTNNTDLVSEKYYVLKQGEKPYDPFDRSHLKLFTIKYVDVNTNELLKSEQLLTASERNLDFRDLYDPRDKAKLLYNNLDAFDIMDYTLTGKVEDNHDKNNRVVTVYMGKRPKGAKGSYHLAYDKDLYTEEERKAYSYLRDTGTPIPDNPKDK

CHO = CHO cell viability loss, potency – luminescence, cytotoxicity control for TLR9-MyD88 binding inhibitor project, dose response (AID 588339); format: functional, cell-based, hamster; settings: Cricetulus griseus;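 further: CHO cells stably coexpressing TLR9 and MyD88 fusions from primary screen; compound exposure lasted 48 hours before viability readout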
Beta Lactamase = Beta Lactamase (Pseudomonas aeruginosa, UniProt Q932Y6); test: BLA reporter interference, concentration series – BLA reporter cells, FRET fluorescence, artefact control for TLR9-MyD88 binding inhibitor project, dose response (AID 588341); format: cell-based;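 further: cell based assay in CHO-K1 cells stably expressing beta-lactamase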
[13] = target: Heat shock protein HSP 90-alpha (Homo sapiens, UniProt P07900); format: functional, organism-based
[14] = target: Glucose-6-phosphate 1-dehydrogenase (Homo sapiens, UniProt P11413); test: inhibition of Homo sapiens G6PD, dose series – biochemical, fluorescence, selectivity assay for P. falciparum G6PD inhibitor project, dose response (AID 504792); format: functional
Sequence of Glucose-6-phosphate 1-dehydrogenase (P11413 whole entry): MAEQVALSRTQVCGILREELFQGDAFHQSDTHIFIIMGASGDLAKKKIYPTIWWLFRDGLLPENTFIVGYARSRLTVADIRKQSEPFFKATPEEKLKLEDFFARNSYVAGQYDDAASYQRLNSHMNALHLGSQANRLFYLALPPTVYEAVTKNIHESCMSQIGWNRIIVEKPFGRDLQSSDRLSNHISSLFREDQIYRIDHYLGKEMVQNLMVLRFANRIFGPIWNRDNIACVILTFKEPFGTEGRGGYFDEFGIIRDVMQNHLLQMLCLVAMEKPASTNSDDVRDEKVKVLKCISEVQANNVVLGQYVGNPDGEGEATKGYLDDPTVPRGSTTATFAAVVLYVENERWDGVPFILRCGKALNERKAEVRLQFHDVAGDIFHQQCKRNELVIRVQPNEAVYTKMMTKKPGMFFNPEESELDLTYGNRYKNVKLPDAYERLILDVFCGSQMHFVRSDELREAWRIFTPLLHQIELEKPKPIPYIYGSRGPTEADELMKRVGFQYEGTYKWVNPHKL

Sequence of Beta Lactamase (Q932Y6 whole entry): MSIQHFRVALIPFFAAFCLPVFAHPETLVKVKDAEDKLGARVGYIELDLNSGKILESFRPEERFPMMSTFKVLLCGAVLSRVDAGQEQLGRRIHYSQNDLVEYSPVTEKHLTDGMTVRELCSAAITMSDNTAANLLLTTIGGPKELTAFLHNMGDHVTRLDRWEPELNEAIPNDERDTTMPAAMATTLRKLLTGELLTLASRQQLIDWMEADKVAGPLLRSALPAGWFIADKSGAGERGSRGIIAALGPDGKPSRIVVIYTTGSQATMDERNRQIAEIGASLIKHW

## N/C(S)=N/N=C/c1ncccc1O
P388/ADR
  GI50: 0.366 µM (active)
P388
  GI50: 0.347 µM (active)
SN12K1
  GI50: 0.382 µM (active)

## CCCOC(=O)c1ccc(NC(=O)/C=C/c2cccs2)cc1
Caspase-3
  IC50: 62.9 µM (active)
Protein skinhead-1
  IC50: > 100 µM (inactive)
[1]
  IC50: 12.9 µM (active)
[2]
  IC50: 70.2 µM (active)
[3]
  IC50: 69.7 µM (active)

## CCOC(=O)c1cc2ccc3ccccc3c2s1
Caspase-3
  IC50: 49.5 µM (active)
[1]
  IC50: 10.5 µM (active)
[2]
  IC50: > 100 µM (inactive)
[3]
  IC50: 70.9 µM (active)

## Cc1cccc(NC(=O)/C=C/c2ccc([N+](=O)[O-])s2)c1
BJ [4]
  EC50: 531 nM (active)
BJ [5]
  EC50: 15.7 µM (active)
[6]
  EC50: 4.68 µM (active)
INS1
  AC50: 7.91 µM (active)
[7]
  AC50: 13.5 µM (active)
[8]
  AC50: 9.74 µM (active)
[9]
  AC50: 3.29 µM (active)
BJ [10]
  EC50: 4.67 µM (inconclusive)
BJ [11]
  EC50: 4.95 µM (inconclusive)

## Cc1cccc(NCc2nc3ccccc3n2Cc2ccccc2)c1
Streptococcus
  EC50: > 150 µM (not active)
Caspase-3
  IC50: 44.6 µM (active)
[12]
  EC50: 8.81 µM (active)
Streptokinase A
  EC50: > 150 µM (not active)
[1]
  IC50: 12.7 µM (active)
[2]
  IC50: 54.9 µM (active)
[3]
  IC50: 37.7 µM (active)

## Cc1ccc(Nc2ncnc3c2oc2ccccc23)cc1
Caspase-3
  IC50: 28 µM (active)
[1]
  IC50: 5.1 µM (active)
[2]
  IC50: > 100 µM (inactive)
[3]
  IC50: > 100 µM (inactive)

## N/C(=N\O)N/N=C/c1ncccc1O
P388/ADR
  GI50: 1.52 µM (inactive)
P388
  GI50: 1.67 µM (inactive)
SN12K1
  GI50: 3.52 µM (inactive)

## CC(=O)Nc1ccc2c(c1)Cc1cc(N3C(=O)C=CC3=O)ccc1-2
CHO
  IC50: 1.86 µM (active)
Beta Lactamase
  IC50: 7.23 µM (active)
[13]
  AC50: 680 nM (active)
[14]
  IC50: > 80 µM (inactive)

## O=C(NN1C(=O)CSC1c1ccc(C(F)(F)F)cc1)c1ccncc1 (configuration not stated)
P388/ADR
  GI50: > 67.6 µM (inactive)
P388
  GI50: > 100 µM (inactive)
SN12K1
  GI50: > 100 µM (inactive)

## CCOC(=O)CCc1c(C)c2c(O)cc(O)cc2oc1=O
P388/ADR
  GI50: 14 µM (inactive)
P388
  GI50: 3.77 µM (inactive)
SN12K1
  GI50: > 94.2 µM (inactive)

## Nc1c(S(=O)(=O)O)cc(S(=O)(=O)O)c2ccc(/N=N/c3ccc(/C=C/c4ccc(/N=N/c5ccc6c(S(=O)(=O)O)cc(S(=O)(=O)O)c(N)c6c5O)cc4S(=O)(=O)O)c(S(=O)(=O)O)c3)c(O)c12
P388
  GI50: 73.5 µM (inactive)
SN12K1
  GI50: > 100 µM (inactive)

Reference: ChEMBL document CHEMBL1201862, “PubChem BioAssay data set” (2004)
